Source: paper PMC3894558, “Chemical signatures and new drug targets for gametocytocidal drug development” (Scientific Reports, 2014)
Like-named read-outs stand apart in the source and are kept apart here.

System: P. falciparum 3D7 gametocytes
Test: alamarBlue gametocyte viability assay, strain 3D7
Assay type: cell-based, Plasmodium falciparum
Conditions: for Max Resp: DMSO set at 0%, 100 nM epoxomicin set at -100%; for Curve Class / IC50: stages III-V 3D7 gametocytes; for IC50: 11 concentrations, 1:3 dilution; call rule not given here

SMILES	Max Resp (Malaria Box) [%]	Curve Class (Malaria Box)	IC50 (Malaria Box, read-out: IC50) [µM]	IC50 (Malaria Box)	IC50 (Plasmodium falciparum, 3D7, Malaria Box, read-out: IC50) [µM]
COc1cccc(NC(=O)[C@H](C(C)C)n2c(=O)[nH]c3ccccc3c2=O)c1 [MMV665878]	-82	-1.1	2.64		
CCOc1ccccc1CNC(=O)C1c2ccccc2C(=O)N(CC(C)C)C1c1cccs1 (stereo not drawn) [MMV000653]	-49	-2.2		Inactive	
Cc1c(C)n(Cc2ccc(F)cc2)c2ccc(C(=O)NCc3ccco3)cc12 [MMV008149]	17	4		Inactive	
CCOc1ccc(Nc2ccnc3cc(Cl)ccc23)cc1 [MMV007285]	-38	-1.2	5.26		
COc1ccc(C(C)=O)cc1N1C(=O)C2C(C1=O)C1(c3ccccc3)C(=O)C2(c2ccccc2)C(c2ccc(C)cc2)=C1c1ccc(C)cc1 (stereo not drawn) [MMV007695]	17	4		Inactive	
O=C(Nc1ccc(Br)cc1)Nc1cccc(Cl)c1 [MMV001318]	-20	4		Inactive	
Cc1ccc(C)c(Cn2c(N3CCC(C(=O)NCc4cccs4)CC3)nc3ccccc32)c1 [MMV019741]	-65	-2.2	37.2		
COc1ccc(/C=C2/SC(=Nc3ccccc3)NC2=O)cc1 [MMV665836]	13	4		Inactive	
Cc1cc(N2CCN(C3CCCC3)CC2)n2c(nc3ccccc32)c1C#N [MMV006706]	-18	4		Inactive	
CCOC(=O)c1cn(CC)c2cc(N(C)CCc3ccc(OC)c(OC)c3)c(F)cc2c1=O [MMV665977]	2	4		Inactive	
COc1ccc(CN2CCCC(C(=O)c3ccc(C(F)(F)F)cc3)C2)c(O)c1 (stereo not drawn) [MMV666060]	-45	-1.2	1.05		
Cl.c1ccc2c(NCCCCCCNc3c4c(nc5ccccc35)CCCC4)c3c(nc2c1)CCCC3 [MMV019555]	-104	-1.1	4.69		
O=C(Nc1nc(-c2ccccn2)cs1)c1ccccc1Br [MMV665909]	-65	-2.2	18.7		
O=C(Nc1ccc(Cl)cc1)N1CCN(c2ccc3nncn3n2)CC1 [MMV665917]	-1	4		Inactive	
CCN1CCN(Cc2ccc(NC(=O)c3cc4ccc5cccnc5c4[nH]3)cc2)CC1 [MMV020548]	-56	-3		Inactive	
OC(CNC1CCCCC1)Cn1c2ccccc2c2ccccc21 (stereo not drawn) [MMV009063]	-99	-1.1	2.35		
COc1ccc(C2C(C(=O)Nc3cccc(OC)c3)c3ccccc3C(=O)N2C2CCCCC2)cc1 (stereo not drawn) [MMV008455]	-89	-2.1	16.6		
CCOC(=O)C1CCN(C(=O)CN2C(=O)c3ccccc3C2c2c[nH]c3ccccc23)CC1 (stereo not drawn) [MMV011576]	-98	-1.1	3.72		
Cn1c(C(=O)c2cccc3ccccc23)nc2ccccc21 [MMV665824]	-53	-2.4		Inactive	

SMILES	Max Resp (Malaria Box) [%]	Curve Class (Malaria Box)	IC50 (Malaria Box, read-out: IC50) [µM]	IC50 (Malaria Box)	IC50 (Plasmodium falciparum, 3D7, Malaria Box, read-out: IC50) [µM]
O=C1CC(O)(C(F)(F)C(F)(F)F)Oc2ccccc21 (stereo not drawn) [MMV000972]	-32	-1.4	0.743		
Cl.Cn1c(=O)n(C)c2cc(CNCCNc3ccnc4cc(Cl)ccc34)ccc21 [MMV665875]	-41	-1.2	0.372		
CCCCOc1ccc(C(=O)Nc2cc(C)on2)cc1 [MMV007906]	12	4		Inactive	
O=C(O)C1Cc2c([nH]c3ccccc23)C(c2ccc(Cl)cc2Cl)N1 (stereo not drawn) [MMV008138]	-1	4		Inactive	
Cc1cc(=O)oc2c1ccc1oc(C(=O)c3ccccc3)c(C)c12 [MMV006753]	3	4		Inactive	
CCn1c(SCC(=O)Nc2cc(C(F)(F)F)ccc2Cl)nc2ccccc2c1=O [MMV666103]	-11	4		Inactive	
Cc1ccccc1OCCSc1nc2ccc(NC(=O)c3cccs3)cc2s1 [MMV007396]	23	4		Inactive	
CN(C)CCCNCc1ccc(-c2ccc(F)c(Cl)c2)o1.Cl [MMV020505]	-98	-1.1	3.32		
Cc1ccc(C(=O)c2oc3ccc4c(C)cc(=O)oc4c3c2C)cc1 [MMV086103]	0	4		Inactive	
COc1ccc(C(=O)NC(c2ccccc2Cl)c2cc(Cl)c3cccnc3c2O)cc1 (stereo not drawn) [MMV666022]	-83	-2.1	14.8		
C=CCc1c(C)nc2ccccc2c1O [MMV006913]	0	4		Inactive	
COc1cccc(Nc2nc(NCCO)c3ccccc3n2)c1.Cl [MMV011944]	-68	-2.2	14.8		
CCN(CC)CCCNc1ccnc2cc3ccccc3cc12 [MMV665783]	-50	-2.2		Inactive	
CCN1CCN(c2cc(C)c3cc(NC(=O)c4ccc(OC)c(OC)c4)ccc3n2)CC1 [MMV019074]	-32	-2.2		Inactive	
CCn1nc(-c2ccc(C(=O)OC)cc2)nc2c(=O)n(C)c(=O)nc1-2 [MMV306025]	-98	-1.1	4.69		
FC(F)(F)c1cccc(Nc2nc3ccccc3nc2Nc2cccc(C(F)(F)F)c2)c1 [MMV665794]	-98	-2.1	18.7		
O=C(Nc1cccc(C2=NCCN2)c1)Nc1cccc(C2=NCCN2)c1 [MMV665810]	-78	-2.2			18.7
O=C(NCc1ccco1)C1CCN(S(=O)(=O)c2ccc(Br)cc2)CC1 [MMV007430]	29	4		Inactive	
Brc1ccc(Nc2nc3ccccc3nc2Nc2ccc(Br)cc2)cc1 [MMV007224]	-96	-2.1	20.9		

SMILES	Max Resp (Malaria Box) [%]	Curve Class (Malaria Box)	IC50 (Malaria Box, read-out: IC50) [µM]	IC50 (Malaria Box)	IC50 (Plasmodium falciparum, 3D7, Malaria Box, read-out: IC50) [µM]
COc1cc2cc(C(=O)Nc3ccccc3)c(N)nc2cc1OC [MMV006767]	-53	-2.2	37.2		
Cc1ccc(-c2cc3c(SCC(=O)Nc4cc(C(F)(F)F)ccc4Cl)nccn3n2)cc1 [MMV396680]	-21	4		Inactive	
CSC1=NC(=Nc2c(C)cccc2C)C2(CCC(C(C)(C)C)CC2)N1c1ccc(Cl)cc1 (stereo not drawn) [MMV666596]	14	4		Inactive	
CCOC(=O)c1cn(CC)c2cc(N3CCCCC3)c(F)cc2c1=O [MMV665827]	7	4		Inactive	
O=C(Nc1ccccc1O)c1ccc(-c2ccc(Cl)cc2Cl)o1 [MMV665948]	-52	-1.4	5.9		
CN1CCN(c2ccc(Nc3c4ccccc4nc4ccccc34)cc2)CC1 [MMV006172]	-98	-1.1	1.48		
CCC(O)c1ccc(Br)cc1NC(=O)c1cccc(Cl)c1 (stereo not drawn) [MMV020654]	-37	-1.2	2.09		
Nc1ccc(-c2nc3cc(Cc4ccc5[nH]c(-c6ccc(N)cc6)nc5c4)ccc3[nH]2)cc1 [MMV665943]	-69	-2.2	29.6		
Cc1cc(Nc2cccc(F)c2)nc(NCc2ccccc2)n1 [MMV006319]	-60	-2.2	29.6		
COC(=O)c1ccc(Cl)c2c1C1C=CCC1C(c1cccc3ccccc13)N2 (stereo not drawn) [MMV667489]	1	4		Inactive	
CCOc1cc(Br)c(C(C)NC(=O)c2cccc(OC)c2)cc1OCC (stereo not drawn) [MMV665796]	-58	-2.2	37.2		
O=C(Nc1ccc(F)c(Cl)c1)Nc1ccc(Cl)c(Cl)c1 [MMV665953]	-94	-2.1	18.7		
CN1CCN(c2ncnc3c2[nH]c2ccc(Cl)cc23)CC1 [MMV396704]	-57	-2.2	37.2		
Cc1ccc(N2C(=O)C3C(C2=O)C2(c4ccccc4)C(=O)C3(c3ccccc3)C(c3ccccc3)=C2c2ccccc2)cc1 (stereo not drawn) [MMV666062]	12	4		Inactive	
COc1cccc(NC(=O)Cn2c(C)c(C#N)c3ccccc32)c1 [MMV665826]	-52	-2.2		Inactive	
O=C1c2ccccc2C2=Nc3ccccc3SC(c3cccc(F)c3)C12 (stereo not drawn) [MMV006389]	8	4		Inactive	
COc1ccc2c(c1)C1(Nc3ccccc3-c3nc4ccccc4n31)C(=O)N2 (stereo not drawn) [MMV396749]	-61	-2.2	18.7		
Nc1nc(Nc2cccc(F)c2)nc2ccccc12 [MMV080034]	-61	-2.2	29.6		
CCOc1ccc(CN2CCN(CC(O)COc3ccc(OCC(O)CN4CCN(Cc5ccc(OCC)cc5)CC4)cc3)CC2)cc1 (stereo not drawn) [MMV007092]	-94	-1.1	7.43		
